Data from patent US10405547B2, “Substituted cyclic amides as herbicides” (FMC Corporation, priority 2015, dated 2019).

Columns and labels:
Type in all cases: in vivo
[1] = system: ragweed (common ragweed, Ambrosia elatior); assay: Test A postemergence, ragweed; conditions: visual injury, 0 to 100 scale (0 no effect, 100 complete control), approximately 10 days
Summary of the method: (§1)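 Greenhouse test: compounds in solvent with surfactant sprayed onto loam–sand soil after planting (preemergence) or onto plants 2-10 cm at the one- to two-leaf stage (postemergence). Injury visually rated versus untreated controls after about 10 days on a 0-100 scale (100 = complete control).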

[2] = system: foxtail, giant (Setaria faberii); assay: Test A preemergence, giant foxtail; conditions: 0 to 100 scale (0 no effect, 100 complete control)
Summary of the method: as §1

[3] = system: pigweed (Amaranthus retroflexus); assay: Test A preemergence, pigweed; conditions: 0 to 100 scale (0 no effect, 100 complete control)
Summary of the method: as §1

[4] = system: ryegrass, Italian (Lolium multiflorum); assay: Test A preemergence, Italian ryegrass; conditions: 0 to 100 scale (0 no effect, 100 complete control)
Summary of the method: as §1

[5] = system: galium (catchweed bedstraw, Galium aparine); assay: Test A postemergence, galium; conditions: visual injury, 0 to 100 scale (0 no effect, 100 complete control), approximately 10 days
Summary of the method: as §1

[6] = system: barnyardgrass (Echinochloa crus-galli); assay: Test B flooded paddy test, barnyardgrass; conditions: 500 g ai/ha, applied to paddy water, visual rating after 13 to 15 days, scale 0 (no effect) to 100 (complete control)
Summary of the method: (§2)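 In-water treatment: compound dosed into 3 cm flood over soil, water level unchanged throughout. Controls run alongside; visual assessment at day 13–15.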

kochia (Kochia scoparia) [7] = assay: Test A preemergence, kochia; conditions: 0 to 100 scale (0 no effect, 100 complete control)
Summary of the method: as §1

corn (Zea mays) = assay: Test A postemergence, corn; conditions: visual injury, 0 to 100 scale (0 no effect, 100 complete control), approximately 10 days
Summary of the method: as §1

[8] = system: sedge, umbrella (small-flower umbrella sedge, Cyperus difformis); assay: Test B flooded paddy test, umbrella sedge; conditions: 500 g ai/ha, applied to paddy water, visual rating after 13 to 15 days, scale 0 (no effect) to 100 (complete control)
Summary of the method: as §2

[9] = system: ducksalad (Heteranthera limosa); assay: Test B flooded paddy test, ducksalad; conditions: 500 g ai/ha, applied to paddy water, visual rating after 13 to 15 days, scale 0 (no effect) to 100 (complete control)
Summary of the method: as §2

[10] = system: blackgrass (Alopecurus myosuroides); assay: Test A postemergence, blackgrass; conditions: visual injury, 0 to 100 scale (0 no effect, 100 complete control), approximately 10 days
Summary of the method: as §1

[11] = system: foxtail, giant (Setaria faberii); assay: Test A postemergence, giant foxtail; conditions: visual injury, 0 to 100 scale (0 no effect, 100 complete control), approximately 10 days
Summary of the method: as §1

[12] = system: ryegrass, Italian (Lolium multiflorum); assay: Test A postemergence, Italian ryegrass; conditions: visual injury, 0 to 100 scale (0 no effect, 100 complete control), approximately 10 days
Summary of the method: as §1

kochia (Kochia scoparia) [13] = assay: Test A postemergence, kochia; conditions: visual injury, 0 to 100 scale (0 no effect, 100 complete control), approximately 10 days
Summary of the method: as §1

rice (Oryza sativa) = assay: Test B flooded paddy test, rice; conditions: 500 g ai/ha, applied to paddy water, visual rating after 13 to 15 days, scale 0 (no effect) to 100 (complete control)
Summary of the method: as §2

[14] = system: ragweed (common ragweed, Ambrosia elatior); assay: Test A preemergence, ragweed; conditions: 0 to 100 scale (0 no effect, 100 complete control)
Summary of the method: as §1

[15] = system: barnyardgrass (Echinochloa crus-galli); assay: Test A preemergence, barnyardgrass; conditions: 0 to 100 scale (0 no effect, 100 complete control)
Summary of the method: as §1

[16] = system: wheat (Triticum aestivum); assay: Test A postemergence, wheat; conditions: visual injury, 0 to 100 scale (0 no effect, 100 complete control), approximately 10 days
Summary of the method: as §1

[17] = system: pigweed (Amaranthus retroflexus); assay: Test A postemergence, pigweed; conditions: visual injury, 0 to 100 scale (0 no effect, 100 complete control), approximately 10 days
Summary of the method: as §1

[18] = system: barnyardgrass (Echinochloa crus-galli); assay: Test A postemergence, barnyardgrass; conditions: visual injury, 0 to 100 scale (0 no effect, 100 complete control), approximately 10 days
Summary of the method: as §1

| SMILES | Plant response rating, Ragweed ([1]; 125 g ai/ha) | Plant response rating, Ragweed ([1]; 500 g ai/ha) | Plant response rating, Foxtail, Giant ([2]; 125 g ai/ha) | Plant response rating, Foxtail, Giant ([2]; 500 g ai/ha) | Plant response rating, Pigweed ([3]; 125 g ai/ha) | Plant response rating, Pigweed ([3]; 500 g ai/ha) | Plant response rating, Ryegrass, Italian ([4]; 125 g ai/ha) | Plant response rating, Ryegrass, Italian ([4]; 500 g ai/ha) | Plant response rating, Galium ([5]; 125 g ai/ha) | Plant response rating, Galium ([5]; 500 g ai/ha) | Plant response rating, Barnyardgrass (Flood) [6] | Plant response rating, Kochia (kochia (Kochia scoparia) [7]; 125 g ai/ha) | Plant response rating, Kochia (kochia (Kochia scoparia) [7]; 500 g ai/ha) | Plant response rating, Corn (corn (Zea mays); 125 g ai/ha) | Plant response rating, Corn (corn (Zea mays); 500 g ai/ha) | Plant response rating, Sedge, Umbrella (Flood) [8] | Plant response rating, Ducksalad (Flood) [9] | Plant response rating, Blackgrass ([10]; 125 g ai/ha) | Plant response rating, Blackgrass ([10]; 500 g ai/ha) | Plant response rating, Foxtail, Giant ([11]; 125 g ai/ha) | further results |
| --- | --- | --- | --- | --- | --- | --- | --- | --- | --- | --- | --- | --- | --- | --- | --- | --- | --- | --- | --- | --- | --- |
| O=C1NCC(c2cccc(Oc3ccccn3)c2)C1C(=O)Nc1cccc(F)c1F (stereo not drawn) [Compound 68] | 0 | 0 | 60 | 90 | 0 | 0 | 0 | 0 | 0 | 0 | 20 | 0 | 0 | 0 | 0 | 0 | 80 | 0 | 20 | 0 | Plant response rating, Foxtail, Giant ([11]; 500 g ai/ha): 60; Plant response rating, Ryegrass, Italian ([12]; 125 g ai/ha): 0; Plant response rating, Ryegrass, Italian ([12]; 500 g ai/ha): 0; Plant response rating, Kochia (kochia (Kochia scoparia) [13]; 125 g ai/ha): 0; Plant response rating, Kochia (kochia (Kochia scoparia) [13]; 500 g ai/ha): 0; Plant response rating, Rice (Flood) (rice (Oryza sativa)): 0; Plant response rating, Ragweed ([14]; 125 g ai/ha): 0; Plant response rating, Ragweed ([14]; 500 g ai/ha): 0; Plant response rating, Barnyardgrass ([15]; 125 g ai/ha): 20; Plant response rating, Barnyardgrass ([15]; 500 g ai/ha): 50; Plant response rating, Wheat ([16]; 125 g ai/ha): 0; Plant response rating, Wheat ([16]; 500 g ai/ha): 0; Plant response rating, Pigweed ([17]; 125 g ai/ha): 0; Plant response rating, Pigweed ([17]; 500 g ai/ha): 0; Plant response rating, Barnyardgrass ([18]; 125 g ai/ha): 10; Plant response rating, Barnyardgrass ([18]; 500 g ai/ha): 40 |
| O=C1NCC(c2cccc(Oc3ccccn3)c2)C1C(=O)Nc1ccccc1Cl (stereo not drawn) [Compound 69] | 0 | 0 | 0 | 50 | 0 | 0 | 0 | 0 | 0 | 0 | 0 | 0 | 0 | 0 | 0 | 0 | 70 | 0 | 0 | 0 | Plant response rating, Foxtail, Giant ([11]; 500 g ai/ha): 30; Plant response rating, Ryegrass, Italian ([12]; 125 g ai/ha): 0; Plant response rating, Ryegrass, Italian ([12]; 500 g ai/ha): 0; Plant response rating, Kochia (kochia (Kochia scoparia) [13]; 125 g ai/ha): 0; Plant response rating, Kochia (kochia (Kochia scoparia) [13]; 500 g ai/ha): 0; Plant response rating, Rice (Flood) (rice (Oryza sativa)): 0; Plant response rating, Ragweed ([14]; 125 g ai/ha): 0; Plant response rating, Ragweed ([14]; 500 g ai/ha): 0; Plant response rating, Barnyardgrass ([15]; 125 g ai/ha): 0; Plant response rating, Barnyardgrass ([15]; 500 g ai/ha): 0; Plant response rating, Wheat ([16]; 125 g ai/ha): 0; Plant response rating, Wheat ([16]; 500 g ai/ha): 0; Plant response rating, Pigweed ([17]; 125 g ai/ha): 0; Plant response rating, Pigweed ([17]; 500 g ai/ha): 0; Plant response rating, Barnyardgrass ([18]; 125 g ai/ha): 0; Plant response rating, Barnyardgrass ([18]; 500 g ai/ha): 20 |
